In the first assay the test system is AGS cells (KRAS^G12D). The assay can be described thus: Detection of cell proliferation in vitro by MTT/MTS method (cell activity experiment). Format: cell-based. To be noted: AGS cells; MTT/MTS; 3 days of drug treatment; read-out: AGS IC50. In outline: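 KRAS G12D AGS cells seeded at 1000 per well, compound added 24 h later, 0.5% final DMSO. Viability read after 3 days of treatment by MTT (solubilised in DMSO) or MTS, 4 h, absorbance 490 nm. IC50 from dose–response curves versus DMSO control.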
As to `C#Cc1c(F)ccc2cc(O)cc(-c3ccc4c(N5C[C@H]6CC[C@@H](C5)[C@@H]6C#N)nc(OC[C@@]56CCCN5C[C@H](F)C6)nc4c3F)c12` [Example 127, (1R,5S,8S)-3-(7-(8-ethynyl-7-fluoro-3-hydroxynaphthalen-1-yl)-8-fluoro-2-(((2R,7aS)-2-fluorotetrahydro-1H-pyrrolizin-7a(5H)-yl)methoxy)quinazolin-4-yl)-3-azabicyclo [3.2.1]octane-8-carbonitrile], the IC50 was above 2500 nM.
As to `C#Cc1c(F)ccc2cc(O)cc(-c3ccc4c(N5C[C@H]6CC[C@@H](C5)[C@@H]6SC)nc(OC[C@@]56CCCN5C[C@H](F)C6)nc4c3F)c12` [Example 129, 5-ethynyl-6-fluoro-4-(8-fluoro-2-(((2R,7aS)-2-fluorotetrahydro-1H-pyrrolizin-7a(5H)-yl)methoxy)-4-((1R, 5S,8R)-8-(methylthio)-3-azabicyclo[3.2.1]octan-3-yl)quinazolin-7-yl)naphthalen-2-ol], the IC50 was above 2500 nM.

The same assay, now with this note: Homo sapiens, AGS, 72 h, AGS cells; MTT/MTS; 3 days of drug treatment; read-out: AGS IC50.
For the molecule `C#Cc1c(F)ccc2cc(O)cc(-c3ncc4c(N5CC6CCC(C5)C6[S+](C)[O-])nc(OC[C@@]56CCCN5C[C@H](F)C6)nc4c3F)c12` (stereo partly drawn) [Example 65, 5-ethynyl-6-fluoro-4-(8-fluoro-2-(((2R,7aS)-2-fluorotetrahydro-1H-pyrrolizin-7a(5H)-yl)methoxy)-4-((1R,5S, 8R)-8-(methylsulfinyl)-3-azabicyclo[3.2.1]octan-3-yl)pyrido[4,3-d]pyrimidin-7-yl) naphthalen-2-ol], the IC50 is above 10000 nM.
As to `CN1CCCc2cc(O)cc(-c3ncc4c(N5C[C@H]6CC[C@@H](C5)N6)nc(OC[C@@]56CCCN5C[C@H](F)C6)nc4c3F)c21` [Example 359, 8-(4-((1R,5S)-3,8-diazabicyclo[3.2.1]octan-3-yl)-8-fluoro-2-(((2R,7aS)-2-fluorotetrahydro-1H-pyrrolizin-7a(5H)-yl)methoxy)pyrido[4,3-d]pyrimidin-7-yl)-1-methyl-1,2,3,4-tetrahydroquinolin-6-ol], the IC50 is 35 nM.
On to `COC1CCc2cc(O)cc(-c3ncc4c(N5C[C@H]6CC[C@@H](C5)N6)nc(OC[C@@]56CCCN5C[C@H](F)C6)nc4c3F)c21` (stereo partly drawn) [Example 269, 7-(4-((1R,5S)-3,8-diazabicyclo[3.2.1]octan-3-yl)-8-fluoro-2-(((2R,7aS)-2-fluorotetrahydro-1H-pyrrolizin-7a(5H)-yl)methoxy)pyrido[4,3-d]pyrimidin-7-yl)-1-methoxy-2,3-dihydro-1H-inden-5-ol], for which the IC50 amounted to 30 nM.
The same measure, in the same setting: with `C#Cc1c(F)ccc2cc(O)cc(-c3cc4nc(OC[C@@]56CCCN5C[C@H](F)C6)nc(N5C[C@H]6CC[C@@H](C5)N6)c4c4ncn(C)c34)c12` [Example 400, 4-(9-((1R,5S)-3,8-diazabicyclo[3.2.1]octan-3-yl)-7-(((2R,7aS)-2-fluorotetrahydro-1H-pyrrolizin-7a(5H)-yl)methoxy)-3-methyl-3H-imidazo[4,5-f]quinazolin-4-yl)-5-ethynyl-6-fluoronaphthalen-2-ol] the figure was above 2500 nM; with `CC1(C)CCCc2cc(O)cc(-c3ncc4c(N5C[C@H]6CC[C@@H](C5)N6)nc(OC[C@@]56CCCN5C[C@H](F)C6)nc4c3F)c21` [Example 254, 4-(4-((1R,5S)-3,8-diazabicyclo[3.2.1]octan-3-yl)-8-fluoro-2-(((2R,7aS)-2-fluorotetrahydro-1H-pyrrolizin-7a(5H)-yl)methoxy)pyrido[4,3-d]pyrimidin-7-yl)-5,5-dimethyl-5,6,7,8-tetrahydronaphthalen-2-ol], 462 nM.
On the same count and under the same terms, in the case of `Oc1cc(-c2ccc3c(N4C[C@H]5CC[C@@H](C4)S5)nc(OC[C@@]45CCCN4C[C@H](F)C5)nc3c2F)c2c(F)c(F)ccc2c1` [Example 164, 4-(4-((1R,5S)-8-thia-3-azabicyclo[3.2.1]octan-3-yl)-8-fluoro-2-(((2R,7aS)-2-fluorotetrahydro-1H-pyrrolizin-7a(5H)-yl)methoxy)quinazolin-7-yl)-5,6-difluoronaphthalen-2-ol] it was 300 nM.
Take `CC[C@@H]1CCCc2cc(O)cc(-c3ncc4c(N5CC6CCC(C5)N6)nc(OC[C@@]56CCCN5C[C@H](F)C6)nc4c3F)c21` (single isomer, unassigned) [Example 228, (R)-4-(4-((1R,5S)-3,8-diazabicyclo[3.2.1]octan-3-yl)-8-fluoro-2-(((2R,7aS)-2-fluorotetrahydro-1H-pyrrolizin-7a(5H)-yl)methoxy)pyrido[4,3-d]pyrimidin-7-yl)-5-ethyl-5,6,7,8-tetrahydronaphthalen-2-ol or (S)-4-(4-((1R,5S)-3,8-diazabicyclo[3.2.1]octan-3-yl)-8-fluoro-2-(((2R,7aS)-2-fluorotetrahydro-1H-pyrrolizin-7a(5H)-yl)methoxy)pyrido[4,3-d]pyrimidin-7-yl)-5-ethyl-5,6,7,8-tetrahydronaphthalen-2-ol]: the IC50 was 1090 nM.
The same measure, in the same setting: in the case of `O=S1(=O)[C@@H]2CC[C@H]1CN(c1nc(OC[C@@]34CCCN3C[C@H](F)C4)nc3c(F)c(-c4cc(O)cc5ccc(F)c(F)c45)ncc13)C2` [Example 29, (1R,5S)-3-(7-(7,8-difluoro-3-hydroxynaphthalen-1-yl)-8-fluoro-2-(((2R,7aS)-2-fluorotetrahydro-1H-pyrrolizin-7a(5H)-yl)methoxy)pyrido[4,3-d]pyrimidin-4-yl)-8-thia-3-azabicyclo [3.2.1]octane 8,8-dioxide] it was above 2500 nM.
In the case of `Oc1cc(-c2ncc3c(N4C[C@H]5CC[C@@H](C4)N5)c(C(F)(F)F)c(OC[C@@]45CCCN4C[C@H](F)C5)nc3c2F)c2c(F)c(F)ccc2c1` [Example 198, 4-(4-((1R,5S)-3,8-diazabicyclo[3.2.1]octan-3-yl)-8-fluoro-2-(((2R,7aS)-2-fluorotetrahydro-1H-pyrrolizin-7a(5H)-yl)methoxy)-3-(trifluoromethyl)-1,6-naphthyridin-7-yl)-5,6-difluoronaphthalen-2-ol], the IC50 was above 2500 nM.
As to `C#Cc1c(F)ccc2cc(O)cc(-c3ncc4c(N5CC6CCC(C5)C6SC)nc(OC[C@@]56CCCN5C[C@H](F)C6)nc4c3F)c12` (stereo partly drawn) [Example 64, 5-ethynyl-6-fluoro-4-(8-fluoro-2-(((2R,7aS)-2-fluorotetrahydro-1H-pyrrolizin-7a(5H)-yl)methoxy)-4-((1R,5S, 8R)-8-(methylthio)-3-azabicyclo[3.2.1]octan-3-yl)pyrido[4,3-d]pyrimidin-7-yl) naphthalen-2-ol], the IC50 was above 10000 nM.
Regarding `C#Cc1c(F)ccc2cc(O)cc(-c3ccc4c(C5C[C@H]6CC[C@@H](C5)N6)nc(OC[C@@]56CCCN5C[C@H](F)C6)nc4c3F)c12` (stereo partly drawn) [Example 137, 4-(4-((1R,5S)-8-azabicyclo[3.2.1]octan-3-yl)-8-fluoro-2-(((2R,7aS)-2-fluorotetrahydro-1H-pyrrolizin-7a(5H)-yl)methoxy)quinazolin-7-yl)-5-ethynyl-6-fluoronaphthalen-2-ol], the IC50 was above 2500 nM.
For `O=C1CCCc2cc(O)cc(-c3ncc4c(N5C[C@H]6CC[C@@H](C5)N6)nc(OC[C@@]56CCCN5C[C@H](F)C6)nc4c3F)c21` [Example 249, 8-(4-((1R,5S)-3,8-diazabicyclo[3.2.1]octan-3-yl)-8-fluoro-2-(((2R,7aS)-2-fluorotetrahydro-1H-pyrrolizin-7a(5H)-yl)methoxy)pyrido[4,3-d]pyrimidin-7-yl)-6-hydroxy-3,4-dihydronaphthalen-1(2H)-one], the IC50 was above 2500 nM.
As for `CCn1cnc2cc(O)cc(-c3ncc4c(N5C[C@H]6CC[C@@H](C5)N6)nc(OC[C@@]56CCCN5C[C@H](F)C6)nc4c3F)c21` [Example 278, 7-(4-((1R,5S)-3,8-diazabicyclo[3.2.1]octan-3-yl)-8-fluoro-2-(((2R,7aS)-2-fluorotetrahydro-1H-pyrrolizin-7a(5H)-yl)methoxy)pyrido[4,3-d]pyrimidin-7-yl)-1-ethyl-1H-benzo[d]imidazol-5-ol], the IC50 is above 10000 nM.
Consider `C#Cc1c(F)ccc2cc(O)cc(-c3ncc4c(N(CCNC)C5CC5)nc(OC[C@@]56CCCN5C[C@H](F)C6)nc4c3F)c12` [Example 219, 4-(4-(cyclopropyl(2-(methyl-amino)ethyl)amino)-8-fluoro-2-(((2R,7aS)-2-fluorotetrahydro-1H-pyrrolizin-7a(5H)-yl)methoxy)pyrido[4,3-d]pyrimidin-7-yl)-5-ethynyl-6-fluoronaphthalen-2-ol], for which the IC50 is above 2500 nM.
Same read-out and setting: in the case of `C#Cc1c(F)ccc2cc(O)cc(N3CCc4c(nc(OC[C@]56CCCN5[C@@H](COC(=O)N(C)C)CC6)nc4N4C[C@H]5CC[C@@H](C4)N5)C3)c12` [Example 209, ((3R,7aR)-7a-(((4-((1R,5S)-3,8-diazabicyclo[3.2.1]octan-3-yl)-7-(8-ethynyl-7-fluoro-3-hydroxynaphthalen-1-yl)-5,6,7,8-tetrahydropyrido[3,4-d]pyrimidin-2-yl)oxy)methyl)hexahydro-1H-pyrrolizin-3-yl)methyl dimethylcarbamate] it was 35 nM.
`CCc1c(F)ccc2cc(O)cc(-c3ncc4c(N5C[C@H]6CC[C@@H](C5)O6)nc(OC[C@@]56CCCN5C[C@H](F)C6)nc4c3F)c12` [Example 13, 4-(4-((1R,5S)-8-oxa-3-azabicyclo[3.2.1]octan-3-yl)-8-fluoro-2-(((2R,7aS)-2-fluorotetrahydro-1H-pyrrolizin-7a(5H)-yl)methoxy)pyrido[4,3-d]pyrimidin-7-yl)-5-ethyl-6-fluoronaphthalen-2-ol]: the 50% inhibitory concentration (IC50) turned out to be 320 nM.
Take `CC1CCc2cc(O)cc(-c3ccc4c(N5C[C@H]6CC[C@@H](C5)N6)nc(OC[C@@]56CCCN5C[C@H](F)C6)nc4c3F)c21` (stereo partly drawn) [Example 286, 7-(4-((1R,5S)-3,8-diazabicyclo[3.2.1]octan-3-yl)-8-fluoro-2-(((2R,7aS)-2-fluorotetrahydro-1H-pyrrolizin-7a(5H)-yl)methoxy)quinazolin-7-yl)-1-methyl-2,3-dihydro-1H-inden-5-ol]: the IC50 was 29 nM.
